Values of other authors as cited in publication PMC9762682, “Tocotrienols: Exciting Biological and Pharmacological Properties of Tocotrienols and Naturally Occurring Compounds, Part II” (Annals of clinical case reports, 2022).
Structures can show the parent of a compound that is named as a salt.

Tests used:
[1] = system: Breast cancer cells; parameters: method as in PMID 29606130; value at effective dose: unit not given here;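 as to IC50: anti-proliferation of cancer cells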
[2] = system: T-cells (Jurkat); parameters: method as in PMID 29606130; value at effective dose: unit not given here
[3] = system: Hela cells; parameters: method as in PMID 29606130; value at effective dose: unit not given here; details: for effective dose / percentage of control at effective dose / value at effective dose: 48 h;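 as to IC50: anti-proliferation of cancer cells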
[4] = system: Melanoma cells; parameters: method as in PMID 29606130
[5] = system: Lung cancer cells; parameters: method as in PMID 29606130; value at effective dose: unit not given here
[6] = system: Prostate cancer cells; parameters: method as in PMID 29606130; value at effective dose: scale not given here; details: for effective dose / percentage of control at effective dose / value at effective dose: 48 h;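 as to IC50: anti-proliferation of cancer cells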
[7] = system: B-Lymphocyte cells; parameters: method as in PMID 29606130; value at effective dose: unit not given here;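 as to IC50: anti-proliferation of cancer cells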
[8] = system: Liver cancer cells; parameters: method as in PMID 29606130; value at effective dose: unit not given here; details: for effective dose / percentage of control at effective dose / value at effective dose: 48 h
[9] = system: Pancreas cancer cells; parameters: method as in PMID 29606130; value at effective dose: unit not given here; details: for effective dose / percentage of control at effective dose / value at effective dose: 48 h

SMILES: O=C1C[C@@H]2[C@@H](CO)[C@H](O)C[C@@H]2O1 [(−) Corey Lactone]
- IC50 [1]: 80 µM
- effective dose [1]: 40 µM
- percentage of control at IC50 dose [1]: 55%
- percentage of control at effective dose [1]: 77%
- value at effective dose [1]: 17.7 ± 3.2
- IC50 [2]: 80 µM
- effective dose [2]: 40 µM
- percentage of control at IC50 dose [2]: 29%
- percentage of control at effective dose [2]: 64%
- value at effective dose [2]: 280.3 ± 10.2
- effective dose [3]: 80 µM
- percentage of control at effective dose [3]: 66%
- value at effective dose [3]: 36.0 ± 5.6
- IC50 [4]: 80 µM
- effective dose [4]: 40 µM
- percentage of control at IC50 dose [4]: 46%
- percentage of control at effective dose [4]: 62%
- IC50 [5]: 80 µM
- effective dose [5]: 40 µM
- percentage of control at IC50 dose [5]: 44%
- percentage of control at effective dose [5]: 64%
- value at effective dose [5]: 17.3 ± 3.8
- IC50 [6]: 80 µM
- percentage of control at IC50 dose [6]: 51%
- effective dose [6]: 40 µM
- percentage of control at effective dose [6]: 60%
- value at effective dose [6]: 23.3 ± 2.1
- IC50 [7]: 40 µM
- effective dose [7]: 20 µM
- percentage of control at IC50 dose [7]: 37%
- percentage of control at effective dose [7]: 59%
- value at effective dose [7]: 5.3 ± 1.5
- IC50 [8]: 80 µM
- percentage of control at IC50 dose [8]: 56%
- effective dose [8]: 80 µM
- percentage of control at effective dose [8]: 56%
- value at effective dose [8]: 31.7 ± 2.1
- IC50 [9]: 80 µM
- percentage of control at IC50 dose [9]: 54%
- effective dose [9]: 40 µM
- percentage of control at effective dose [9]: 58%
- value at effective dose [9]: 30.7 ± 1.2

SMILES: CC1(C)S[C@@H]2[C@H](NC(=O)[C@H](N)c3ccccc3)C(=O)N2[C@H]1C(=O)O [Ampicillin]
- effective dose [1]: 40 µM
- percentage of control at effective dose [1]: 74%
- value at effective dose [1]: 16.7 ± 6.1
- effective dose [2]: 20 µM
- percentage of control at effective dose [2]: 94%
- value at effective dose [2]: 450.3 ± 15.6
- effective dose [3]: 80 µM
- percentage of control at effective dose [3]: 88%
- value at effective dose [3]: 47.7 ± 5.5
- effective dose [4]: 20 µM
- percentage of control at effective dose [4]: 70%
- effective dose [5]: 80 µM
- percentage of control at effective dose [5]: 85%
- value at effective dose [5]: 21.3 ± 1.5
- IC50 [6]: 5 µM
- percentage of control at IC50 dose [6]: 50%
- effective dose [6]: 20 µM
- percentage of control at effective dose [6]: 41%
- value at effective dose [6]: 15.0 ± 1.0
- effective dose [7]: 10 µM
- percentage of control at effective dose [7]: 66%
- value at effective dose [7]: 44.7 ± 5.1
- effective dose [8]: 40 µM
- percentage of control at effective dose [8]: 88%
- value at effective dose [8]: 70.3 ± 4.2
- effective dose [9]: 80 µM
- percentage of control at effective dose [9]: 74%
- value at effective dose [9]: 35.3 ± 5.0

SMILES: N=C(N)NC(=O)c1nc(Cl)c(N)nc1N [Amiloride-HCL]
- IC50 [1]: 40 µM
- effective dose [1]: 20 µM
- percentage of control at IC50 dose [1]: 52%
- percentage of control at effective dose [1]: 61%
- value at effective dose [1]: 14.0 ± 5.3
- effective dose [2]: 20 µM
- percentage of control at effective dose [2]: 38%
- value at effective dose [2]: 132.7 ± 2.1
- IC50 [3]: 10 µM
- percentage of control at IC50 dose [3]: 51%
- effective dose [3]: 80 µM
- percentage of control at effective dose [3]: 36%
- value at effective dose [3]: 19.7 ± 1.5
- effective dose [4]: 40 µM
- percentage of control at effective dose [4]: 90%
- effective dose [5]: 40 µM
- percentage of control at effective dose [5]: 86%
- value at effective dose [5]: 23.3 ± 2.5
- effective dose [6]: 80 µM
- percentage of control at effective dose [6]: 70%
- value at effective dose [6]: 27.0 ± 4.6
- IC50 [7]: 40 µM
- effective dose [7]: 20 µM
- percentage of control at IC50 dose [7]: 48%
- percentage of control at effective dose [7]: 56%
- value at effective dose [7]: 5.0 ± 1.0
- percentage of control at IC50 dose [8]: 56%
- effective dose [8]: 40 µM
- percentage of control at effective dose [8]: 65%
- value at effective dose [8]: 36.7 ± 2.5
- effective dose [9]: 80 µM
- percentage of control at effective dose [9]: 69%
- value at effective dose [9]: 30.7 ± 1.2
